A word on the MIC: it is the smallest concentration in the dilution series that meets the test's criterion for growth inhibition. A high value points to a need for much substance.

Consider 16 compounds from US11098055B2, “Ester ACC inhibitors and uses thereof” (Gilead Apollo, LLC, priority 2015, dated 2021).

Assay [1] deals with C. parapsilosis ATCC 22019. As to the kind of experiment: Anti-Fungal (Candida) Activity Assay, broth microtiter MIC. The assay is classed as cell-based. To be noted: Lodderomyces parapsilosis, ATCC22019, 48 h, 3 replicates, MIC read at 48 h. As for the experimental part: (§1) Compounds of the present invention were evaluated in an Anti-Fungal Activity Assay. An exemplary procedure for the assay, which measures the susceptibility of various Candida species to anti-fungal compounds, follows. Compounds to be tested (including fluconazole and amphotericin B) were dissolved in DMSO to obtain a solution having a concentration of 1 mg/mL. These stock solutions were sterile filtered using a 0.22 um nylon syringe filter, then diluted in sterile water to achieve a final concentration of 128 μg/mL.
(§2) All species were grown from frozen stock by directly plating on to freshly prepared Sabouraud Dextrose agar (BD, Difco) and incubated overnight in ambient air at 35° C. for 24 h. A direct suspension was prepared in RPMI 1640+MOPS (Lonza, Biowhittaker) by taking individual colonies from the overnight cultures using sterile swabs soaked in sterile saline. The concentration of the suspension was determined using pre-determined standard curves. These suspensions were then diluted down to 5×10^3 CFU/mL to achieve a final concentration of 2.5×10^3 CFU/mL once added to the microtiter plate as per CLSI guidelines (M27-A3, Vol. 28 No. 14).
(§3) Broth microtiter MIC challenge plates were prepared following CLSI guidelines (M27-A3, Vol. 28 No. 14). The original CLSI guidelines focused on reading Candida MICs after 48 h of incubation. As reading after only 24 h offers a clear advantage of patient care, QC limits are being established for all drugs at 24 h. That being said there are no known interpretive breakpoints for amphotericin B at 24 h and the current fluconazole interpretive breakpoints are based on a 48 h reading. The MIC for the test compounds were recorded at 48 h. All MIC determinations were achieved by visually comparing the growth found in the antibiotic challenged wells to that of the growth control.

In a further assay the test system is C. albicans ATCC 90028. Described as above. The note with it: ATCC90028, 48 h, 3 replicates, MIC read at 48 h. It counts as cell-based. As for the experimental part: as §1, §2, §3

Converted amounts (≈) assume the structure as drawn. Bounds are passed on as bounds.

As for `CCOC(=O)c1sc2c(c1C)c(=O)n(C(C)(C)C(=O)N1CCCC1)c(=O)n2C[C@H](OCCC#N)c1cc(F)ccc1OC` [Compound I-16, (R)-ethyl 1-(2-(2-cyanoethoxy)-2-(5-fluoro-2-methoxy-phenyl)ethyl)-5-methyl-3-(2-methyl-1-oxo-1-(pyrrolidin-1-yl)propan-2-yl)-2,4-dioxo-1,2,3,4-tetrahydrothieno[2,3-d]pyrimidine-6-carboxylate], the MIC is > 4.1 µg/mL in assay [1] (Table 3a), 0.25 to 1 µg/mL (≈ 0.407 to 1.63 µM) in assay [1] (Table 3b (additional results)), > 4.1 µg/mL against C. albicans ATCC 90028 (Table 3a) and 2.1 to 4 µg/mL (≈ 3.42 to 6.51 µM) against C. albicans ATCC 90028 (Table 3b (additional results)).
Take `CCOC(=O)c1sc2c(c1C)c(=O)n(C(C)(C)C(=O)N1CCCCC1)c(=O)n2C[C@H](OC1CCOCC1)c1ccccc1OC` [Compound I-2, ethyl (R)-1-(2-(2-methoxyphenyl)-2-((tetrahydro-2H-pyran-4-yl)oxy)ethyl)-5-methyl-3-(2-methyl-1-oxo-1-(piperidin-1-yl)propan-2-yl)-2,4-dioxo-1,2,3,4-tetrahydrothieno[2,3-d]pyrimidine-6-carboxylate]: the minimum inhibitory concentration (MIC) (in assay [1] (Table 3a); in assay [1] (Table 3b (additional results)); in the assay on C. albicans ATCC 90028 (Table 3a); in the assay on C. albicans ATCC 90028 (Table 3b (additional results))) was 0.25 to 1 µg/mL (≈ 0.39 to 1.56 µM) in each case.
For the compound `CCNC(=O)[C@@H](C)n1c(=O)c2c(C)c(C(=O)OCC)sc2n(C[C@H](OCCC#N)c2cc(F)ccc2OC)c1=O` [Compound I-41, ethyl 1-((R)-2-(2-cyanoethoxy)-2-(5-fluoro-2-methoxy-phenyl)ethyl)-3-((R)-1-(ethylamino)-1-oxopropan-2-yl)-5-methyl-2,4-dioxo-1,2,3,4-tetrahydrothieno[2,3-d]pyrimidine-6-carboxylate], the MIC (in assay [1] (Table 3b (additional results)); with C. albicans ATCC 90028 (Table 3b (additional results))) was 2.1 to 4 µg/mL (≈ 3.65 to 6.96 µM) in each case.
On to `CCOC(=O)c1sc2c(c1C)c(=O)n(C(C)(C)C(=O)NC(C)C)c(=O)n2C[C@H](OCC(C)(C)C#N)c1ccccc1OC` [Compound I-38, ethyl (R)-1-(2-(2-cyano-2-methylpropoxy)-2-(2-methoxyphenyl)ethyl)-3-(1-(isopropylamino)-2-methyl-1-oxopropan-2-yl)-5-methyl-2,4-dioxo-1,2,3,4-tetrahydrothieno[2,3-d]pyrimidine-6-carboxylate], for which the results for the MIC (in assay [1] (Table 3b (additional results)); in the assay with C. albicans ATCC 90028 (Table 3b (additional results))) were 2.1 to 4 µg/mL (≈ 3.43 to 6.53 µM) and 0.25 to 1 µg/mL (≈ 0.408 to 1.63 µM), respectively.
The corresponding values for `CCOC(=O)c1sc2c(c1C)c(=O)n([C@@H](C)C(=O)NC(C)C)c(=O)n2C[C@H](O)c1cc(F)ccc1OC` [Compound I-44, ethyl 1-((R)-2-(5-fluoro-2-methoxyphenyl)-2-hydroxyethyl)-3-((S)-1-(isopropylamino)-1-oxopropan-2-yl)-5-methyl-2,4-dioxo-1,2,3,4-tetrahydrothieno[2,3-d]pyrimidine-6-carboxylate] are 2.1 to 4 µg/mL (≈ 3.92 to 7.47 µM) and 2.1 to 4 µg/mL (≈ 3.92 to 7.47 µM).
Consider `CCOC(=O)c1sc2c(c1C)c(=O)n(C(C)(C)C(=O)NC(C)C)c(=O)n2C[C@H](OC1CCOCC1)c1ccccc1OC` [Compound I-8, (R)-ethyl 3-(1-(isopropylamino)-2-methyl-1-oxopropan-2-yl)-1-(2-(2-methoxyphenyl)-2-((tetrahydro-2H-pyran-4-yl)oxy)ethyl)-5-methyl-2,4-dioxo-1,2,3,4-tetrahydrothieno[2,3-d]pyrimidine-6-carboxylate], for which the MIC in assay [1] (Table 3a) was in the range of 1.1 to 2 µg/mL (≈ 1.79 to 3.25 µM); in assay [1] (Table 3b (additional results)) it was 2.1 to 4 µg/mL (≈ 3.41 to 6.5 µM); in the assay on C. albicans ATCC 90028 (Table 3a), 1.1 to 2 µg/mL (≈ 1.79 to 3.25 µM); against C. albicans ATCC 90028 (Table 3b (additional results)) it was 1.1 to 2 µg/mL (≈ 1.79 to 3.25 µM).
With `CCOC(=O)c1sc2c(c1C)c(=O)n(C(C)(C)C(=O)NC(C)C)c(=O)n2C[C@H](OCC#N)c1cc(F)ccc1OC` [Compound I-33, ethyl (R)-1-(2-(cyanomethoxy)-2-(5-fluoro-2-methoxy-phenyl)ethyl)-3-(1-(isopropylamino)-2-methyl-1-oxopropan-2-yl)-5-methyl-2,4-dioxo-1,2,3,4-tetrahydrothieno[2,3-d]pyrimidine-6-carboxylate], the minimum inhibitory concentration (MIC) in assay [1] (Table 3b (additional results)) lay within 2.1 to 4 µg/mL (≈ 3.57 to 6.8 µM); against C. albicans ATCC 90028 (Table 3b (additional results)) it was 0.25 to 1 µg/mL (≈ 0.425 to 1.7 µM).
On to `CCOC(=O)c1sc2c(c1C)c(=O)n(C(C)(C)C(=O)NC(C)C)c(=O)n2C[C@H](OCCC#N)c1ccccc1OC` [Compound I-31, ethyl (R)-1-(2-(2-cyanoethoxy)-2-(2-methoxyphenyl)ethyl)-3-(1-(isopropylamino)-2-methyl-1-oxopropan-2-yl)-5-methyl-2,4-dioxo-1,2,3,4-tetrahydrothieno[2,3-d]pyrimidine-6-carboxylate], for which the values for the MIC (in assay [1] (Table 3b (additional results)); in the assay on C. albicans ATCC 90028 (Table 3b (additional results))) were 1.1 to 2 µg/mL (≈ 1.88 to 3.42 µM) and 0.25 to 1 µg/mL (≈ 0.428 to 1.71 µM), respectively.
For the compound `CCOC(=O)c1sc2c(c1C)c(=O)n([C@H](C)C(=O)NC(C)C)c(=O)n2C[C@H](OCCC#N)c1cc(F)ccc1OC` [Compound I-21, ethyl 1-((R)-2-(2-cyanoethoxy)-2-(5-fluoro-2-methoxyphenyl)ethyl)-3-((R)-1-(isopropylamino)-1-oxopropan-2-yl)-5-methyl-2,4-dioxo-1,2,3,4-tetrahydrothieno[2,3-d]pyrimidine-6-carboxylate], the MIC in assay [1] (Table 3b (additional results)) lay within 2.1 to 4 µg/mL (≈ 3.57 to 6.8 µM); against C. albicans ATCC 90028 (Table 3b (additional results)) it was 1.1 to 2 µg/mL (≈ 1.87 to 3.4 µM).
For the compound `CCOC(=O)c1sc2c(c1C)c(=O)n(C(C)(C)C(=O)NC(C)C)c(=O)n2C[C@H](O)c1cc(F)ccc1OC` [Compound I-19, (R)-ethyl 1-(2-(5-fluoro-2-methoxyphenyl)-2-hydroxyethyl)-3-(1-(isopropylamino)-2-methyl-1-oxopropan-2-yl)-5-methyl-2,4-dioxo-1,2,3,4-tetrahydrothieno[2,3-d]pyrimidine-6-carboxylate], the MIC was 2.1 to 4 µg/mL (≈ 3.82 to 7.28 µM) in assay [1] (Table 3b (additional results)) and 0.25 to 1 µg/mL (≈ 0.455 to 1.82 µM) against C. albicans ATCC 90028 (Table 3b (additional results)).
In the case of `CCOC(=O)c1sc2c(c1C)c(=O)n([C@@H](C)C(=O)N1CCCC1)c(=O)n2C[C@H](OCCC#N)c1cc(F)ccc1OC` [Compound I-23, ethyl 1-((R)-2-(2-cyanoethoxy)-2-(5-fluoro-2-methoxy-phenyl)ethyl)-5-methyl-2,4-dioxo-3-((S)-1-oxo-1-(pyrrolidin-1-yl)propan-2-yl)-1,2,3,4-tetrahydrothieno[2,3-d]pyrimidine-6-carboxylate], the figures for the minimal inhibitory concentration (MIC) (in assay [1] (Table 3b (additional results)); in the assay with C. albicans ATCC 90028 (Table 3b (additional results))) were > 4.1 µg/mL and 2.1 to 4 µg/mL (≈ 3.5 to 6.66 µM), respectively.
Turning to `CCOC(=O)c1sc2c(c1C)c(=O)n(C(C)(C)C(=O)N1CCCC1)c(=O)n2C[C@H](OCCOC)c1cc(F)ccc1OC` [Compound I-13, (R)-ethyl 1-(2-(5-fluoro-2-methoxyphenyl)-2-(2-methoxy-ethoxy)ethyl)-5-methyl-3-(2-methyl-1-oxo-1-(pyrrolidin-1-yl)propan-2-yl)-2,4-dioxo-1,2,3,4-tetrahydrothieno[2,3-d]pyrimidine-6-carboxylate], the MIC in assay [1] (Table 3a) is > 4.1 µg/mL; in assay [1] (Table 3b (additional results)), 2.1 to 4 µg/mL (≈ 3.39 to 6.45 µM); against C. albicans ATCC 90028 (Table 3a), > 4.1 µg/mL; in the assay on C. albicans ATCC 90028 (Table 3b (additional results)) it was 2.1 to 4 µg/mL (≈ 3.39 to 6.45 µM).
For `CCOC(=O)c1sc2c(c1C)c(=O)n(C(C)(C)C(N)=O)c(=O)n2C[C@H](OCCO)c1cc(F)ccc1OC` [Compound I-17, (R)-ethyl 3-(1-amino-2-methyl-1-oxopropan-2-yl)-1-(2-(5-fluoro-2-methoxyphenyl)-2-(2-hydroxyethoxy)ethyl)-5-methyl-2,4-dioxo-1,2,3,4-tetrahydro-thieno[2,3-d]pyrimidine-6-carboxylate], the MIC is > 4.1 µg/mL in assay [1] (Table 3a), 1.1 to 2 µg/mL (≈ 1.99 to 3.63 µM) in assay [1] (Table 3b (additional results)), > 4.1 µg/mL with C. albicans ATCC 90028 (Table 3a) and 2.1 to 4 µg/mL (≈ 3.81 to 7.25 µM) with C. albicans ATCC 90028 (Table 3b (additional results)).
Take `CCOC(=O)c1sc2c(c1C)c(=O)n([C@H](C)C(=O)N1CCCC1)c(=O)n2C[C@H](OCCC#N)c1cc(F)ccc1OC` [Compound I-24, ethyl 1-((R)-2-(2-cyanoethoxy)-2-(5-fluoro-2-methoxy-phenyl)ethyl)-5-methyl-2,4-dioxo-3-((R)-1-oxo-1-(pyrrolidin-1-yl)propan-2-yl)-1,2,3,4-tetrahydrothieno[2,3-d]pyrimidine-6-carboxylate]: the results for the minimum inhibitory concentration (MIC) (in assay [1] (Table 3b (additional results)); against C. albicans ATCC 90028 (Table 3b (additional results))) were 0.25 to 1 µg/mL (≈ 0.416 to 1.66 µM) and 2.1 to 4 µg/mL (≈ 3.5 to 6.66 µM), respectively.
Turning to `CCOC(=O)c1sc2c(c1C)c(=O)n(C(C)(C)C(=O)NC(C)C)c(=O)n2C[C@H](OC(C)C)c1ccccc1OC` [Compound I-9, (R)-ethyl 1-(2-isopropoxy-2-(2-methoxyphenyl)ethyl)-3-(1-(isopropylamino)-2-methyl-1-oxopropan-2-yl)-5-methyl-2,4-dioxo-1,2,3,4-tetrahydrothieno[2,3-d]pyrimidine-6-carboxylate], the minimal inhibitory concentration (MIC) in assay [1] (Table 3a) lay within 2.1 to 4 µg/mL (≈ 3.66 to 6.97 µM); in assay [1] (Table 3b (additional results)) it was 2.1 to 4 µg/mL (≈ 3.66 to 6.97 µM); against C. albicans ATCC 90028 (Table 3a), 1.1 to 2 µg/mL (≈ 1.92 to 3.49 µM); in the assay with C. albicans ATCC 90028 (Table 3b (additional results)), 1.1 to 2 µg/mL (≈ 1.92 to 3.49 µM).
Regarding `CCOC(=O)c1sc2c(c1C)c(=O)n([C@@H](C)C(=O)N(C)C(C)C)c(=O)n2C[C@H](OCCC#N)c1cc(F)ccc1OC` [Compound I-28, ethyl 1-((R)-2-(2-cyanoethoxy)-2-(5-fluoro-2-methoxy-phenyl)-ethyl)-3-((S)-1-(isopropyl(methyl)amino)-1-oxopropan-2-yl)-5-methyl-2,4-dioxo-1,2,3,4-tetrahydrothieno[2,3-d]pyrimidine-6-carboxylate], the MIC (in assay [1] (Table 3b (additional results)); in the assay with C. albicans ATCC 90028 (Table 3b (additional results))) was 2.1 to 4 µg/mL (≈ 3.48 to 6.64 µM) each time.
